The values that follow are results of earlier work, collected in patent US8097707B2, “Compositions and processes for preparing 13-deoxy-anthracyclines” (priority 2004, dated 2012).

The conditions of the series: test systems where doxorubicin is not metabolized appreciably to the 13-dihydro alcohol metabolite (doxorubicinol).

For the molecule `COc1cccc2c1C(=O)c1c(O)c3c(c(O)c1C2=O)C[C@@](O)(C(=O)CO)C[C@@H]3O[C@H]1C[C@H](N)[C@H](O)[C@H](C)O1` [doxorubicin], the cardiotoxic effects entry is “no significant cardiotoxic effects”.
